Where two headings read alike, the source gives them in different places. Values belong to the molecule of their own block, whether it stands above or below them.
Target: T1, DinB2 (MsmDinB2) (Mycolicibacterium smegmatis, UniProt A0QR77)
T1 construct: gene dinB; full-length 356 aa, 39 kDa, monomer; expressed in E. coli BL21(DE3) as His10Smt3 fusion, tag removed with Ulp1
Test: primer extension, kobs of first nucleotide addition vs nucleotide concentration, hyperbolic fit
Type: biochemical
Details: 5 mM MgCl2, 10 mM Tris-HCl pH 7.5, 37 °C, 1 μM enzyme, read-out: apparent Kd

[1] = 50 nM 13-mer/18-mer DNA primer-template with dG as first template base
[2] = 50 nM 13-mer/18-mer DNA primer-template with dA as first template base
[3] = 50 nM 13-mer/18-mer DNA primer-template with dT as first template base
[4] = 50 nM 13-mer/18-mer DNA primer-template with dC as first template base

T1 sequence (A0QR77 entry or part of it): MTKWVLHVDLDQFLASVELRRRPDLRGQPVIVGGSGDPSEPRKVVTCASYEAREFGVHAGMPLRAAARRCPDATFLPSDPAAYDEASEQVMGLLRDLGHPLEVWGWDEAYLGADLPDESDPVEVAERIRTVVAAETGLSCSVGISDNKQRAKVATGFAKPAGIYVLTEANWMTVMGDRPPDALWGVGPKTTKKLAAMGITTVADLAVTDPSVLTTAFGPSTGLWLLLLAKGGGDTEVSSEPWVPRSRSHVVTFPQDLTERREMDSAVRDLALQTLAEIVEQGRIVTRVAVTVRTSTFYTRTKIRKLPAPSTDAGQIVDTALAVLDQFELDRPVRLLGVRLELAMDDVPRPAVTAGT

Kd [1]: 1.5 µM
Structure (SMILES): Nc1ccn([C@H]2C[C@H](O)[C@@H](COP(=O)(O)OP(=O)(O)OP(=O)(O)O)O2)c(=O)n1 [dCTP]

Kd [2]: 8 µM
Structure (SMILES): Cc1cn([C@H]2C[C@H](O)[C@@H](COP(=O)(O)OP(=O)(O)OP(=O)(O)O)O2)c(=O)[nH]c1=O [dTTP]

Kd [3]: 0.85 µM
Structure (SMILES): Nc1ncnc2c1ncn2[C@H]1C[C@H](O)[C@@H](COP(=O)(O)OP(=O)(O)OP(=O)(O)O)O1 [dATP]

Kd [4]: 22 µM
Structure (SMILES): Nc1nc2c(ncn2[C@@H]2O[C@H](COP(=O)(O)OP(=O)(O)OP(=O)(O)O)[C@@H](O)[C@H]2O)c(=O)[nH]1 [GTP]

Kd [4]: 0.87 µM
Structure (SMILES): Nc1nc2c(ncn2[C@H]2C[C@H](O)[C@@H](COP(=O)(O)OP(=O)(O)OP(=O)(O)O)O2)c(=O)[nH]1 [dGTP]

Kd [1]: 44 µM
Structure (SMILES): Nc1ccn([C@@H]2O[C@H](COP(=O)(O)OP(=O)(O)OP(=O)(O)O)[C@@H](O)[C@H]2O)c(=O)n1 [CTP]

Kd [2]: 411 µM
Structure (SMILES): O=c1ccn([C@@H]2O[C@H](COP(=O)(O)OP(=O)(O)OP(=O)(O)O)[C@@H](O)[C@H]2O)c(=O)[nH]1 [UTP]

Kd [3]: 66 µM
Structure (SMILES): Nc1ncnc2c1ncn2[C@@H]1O[C@H](COP(=O)(O)OP(=O)(O)OP(=O)(O)O)[C@@H](O)[C@H]1O [ATP]
